From patent US9206198B2, “Inhibitors of the renal outer medullary potassium channel” (Merck Sharp & Dohme Corp., priority 2012, dated 2015)

What was measured:
hROMK (hKir1.1) = hROMK (hKir1.1) (Homo sapiens (Human), UniProt P48048); assay: Thallium Flux Assay (ROMK channel functional thallium flux assay, FLIPR-Tetra); type: cell-based; settings: HEK293 cells stably expressing hROMK
Procedure: Cell Culture Conditions— HEK293 cells stably expressing hROMK (hKir1.1) were grown at 37° C. in a 10% CO2 humidified incubator in complete growth media: Dulbecco's Modified Eagle Medium supplemented with non-essential amino acids, Penicillin/Streptomycin/Glutamine, G418 and FBS. At >80% confluency, aspirate the media from the flask and rinse with 10 mL Calcium/Magnesium-free PBS. Add 5 mL of 1× trypsin (prepared in Ca/Mg Free PBS) to T-225 flask and return flask to 37° C./CO2 incubator for 2-3 minutes. To dislodge the cell, gently bang the side of the flask with your hand. Triturate the cells completely and then transfer the cells to 25 mL complete media. Centrifuge at 1,500 rpm for 6 min followed by resuspension in complete growth media and determine cell concentration. For typical re-seeding, 4E6 cells/T-225 flask will attain >80% confluency in 4 days. Under ideal growth conditions and appropriate tissue culture practices, this cell line is stable for 40-45 passages.
FluxOR Kit Components (Invitrogen F10017)
• FluxOR™ Reagent (Component A) • FluxOR™ Assay Buffer (Component B)—10× Concentrate • PowerLoad™ Concentrate (Component C)—100× Concentrate • Probenecid (Component D)—Lyophilized sample is kept at −20° C. Water soluble, 100×after solubilization in 1 mL water. Store at 4° C. • FluxOR™ Chloride-free Buffer (Component E)—5× Concentrate • Potassium sulfate (K2SO4) Concentrate (Component F)—125 mM in water. Store at 4° C. • Thallium sulfate (Tl2SO4) Concentrate (Component G)—50 mM in water. Store at 4° C. • DMSO (dimethyl sulfoxide, Component H)—1 mL (100%) Reagent Preparation: FluxOR Working Solutions • 1000× FluxOR™ Reagent: Reconstitute a vial of component A in 100 μl DMSO; Mix well; Store 10 μl aliquots at −20° C. • 1× FluxOR™ Assay Buffer: Dilute Component B 10-fold with water; Adjust pH to 7.4 with Hepes/NaOH; Filter and store at 4° C. • Probenecid/Assay Buffer: 100 mL of 1× FluxOR™ Assay Buffer; 1 mL of reconstituted component D; Store at 4° C. • Loading Buffer (per microplate): 10 μl 1000× FluxOR™ Reagent; 100 μl component C; 10 mL Probenecid/Assay Buffer • Compound Buffer (per microplate): 20 mL Probenecid/Assay Buffer; 0.3 mM ouabain (10 mM ouabain in water can be stored in amber bottle/aluminum foil at room temperature); Test compound • 1× FluxOR™ Chloride-Free Buffer: Prepare 1× working solution in water. Can be stored at room temperature • Stimulant Buffer (prepared at 5× final concentration in 1× FluxOR™ Chloride-Free Buffer): 7.5 mM Thallium sulfate and 0.75 mM Potassium sulfate (to give a final assay concentration of 3 mM Thallium 0.3 mM Potassium). Store at 4° C. when not in use. If kept sterile, this solution is good for months.
Assay Protocol—The ROMK channel functional thallium flux assay is performed in 384 wells, using the FLIPR-Tetra instrument. HEK-hKir1.1 cells are seeded in Poly-D-Lysine microplates and kept in a 37° C.-10% CO2 incubator overnight. On the day of the experiment, the growth media is replaced with the FluxOR™ reagent loading buffer and incubated, protected from light, at ambient temperature (23-25° C.) for 90 min. The loading buffer is replaced with assay buffer±test compound followed by 30 min incubation at ambient temperature, where the Thallium/Potassium stimulant is added to the microplate.
• 1. Seed HEK-hKir1.1 cells ([…] at 20,000 cells/well) in 384-well PDL coated Microplates • 2. Allow cells to adhere overnight in humidified 37° C./10% CO2 incubator • 3. Completely remove cell growth media from microplate and replace with 25 μl loading buffer • 4. Incubate Microplate at room temperature, protected form light, for 90 min • 5. Remove loading buffer and replace with 25 μl 1× Assay Buffer±test compound. • 6. Incubate microplate at room temperature, protected from light, for 30 min • 7. At FLIPR-Tetra 384: Add stimulant (Thallium/Potassium) solution to microplate and monitor fluorescence. Excitation=400 nm, Emission=460 & 580 nm. Collect data for 10 min.

Kir1.1 (ROMK1) = Kir1.1 (ROMK1) (Homo sapiens (Human), UniProt P48048); assay: Electrophysiology Assay (whole cell voltage clamp, IonWorks Quattro); type: cell-based; settings: Chinese hamster ovary cells stably expressing Kir1.1; block during voltage step to 0 mV
Procedure: Block of Kir1.1 (ROMK1) currents was examined by whole cell voltage clamp (Hamill et. al. Pfluegers Archives 391:85-100 (1981)) using the IonWorks Quattro automated electrophysiology platform (Molecular Devices, Sunnyvale, Calif.). Chinese hamster ovary cells stably expressing Kir1.1 channels were maintained in T-75 flasks in cell culture media in a humidified 10% CO2 incubator at 37° C. Prior to an experiment, Kir1.1 expression was induced by overnight incubation with 1 mM sodium butyrate. On the day of the experiment, cells were dissociated with 2.5 mL of Versene (Invitrogen 15040-066) for approximately 6 min at 37° C. and suspended in 10 mL of bath solution containing (in mM): 150 NaCl, 10 KCl, 2.7 CaCl2, 0.5 MgCl2, 5 HEPES, pH 7.4. After centrifugation, the cell pellet was resuspended in approximately 4.0 mL of bath solution and placed in the IonWorks instrument. The intracellular solution consisted of (in mM): 80 K gluconate, 40 KCl, 20 KF, 3.2 MgCl2, 3 EGTA, 5 Hepes, pH 7.4. Electrical access to the cytoplasm was achieved by perforation in 0.13 mg/mL amphotericin B for 4 min. Amphotericin B (Sigma A-4888) was prepared as a 40 mg/mL solution in DMSO. Voltage protocols and current recordings were performed using the IonWorks HT software/hardware system. Currents were sampled at 1 kHz. No correction for liquid junction potentials was used. The test pulse, consisting of a 100 ms step to 0 mV from a holding potential of −70 mV, followed by a 100 ms voltage ramp from −70 mV to +70 mV, was applied before and after a 6 min compound incubation period. Test compounds were prepared by diluting DMSO stock solutions into the bath solution at 3× the final concentration and placed in the instrument in 96-well polypropylene plates. Current amplitudes were measured using the IonWorks software. To assess compound potency, the fractional block during the voltage step to 0 mV was calculated in Microsoft Excel (Microsoft, Redmond, Calif.), and dose-response curves were fitted with Igor Pro 4.0 (WaveMetrics, Lake Oswego, Oreg.). Normally, a control compound is included to support that the assay is giving consistent results compared to previous measurements, although the control is not required to obtain the results for the test compounds.

Chain of Kir1.1 (ROMK1) (P48048 whole entry, species assumed): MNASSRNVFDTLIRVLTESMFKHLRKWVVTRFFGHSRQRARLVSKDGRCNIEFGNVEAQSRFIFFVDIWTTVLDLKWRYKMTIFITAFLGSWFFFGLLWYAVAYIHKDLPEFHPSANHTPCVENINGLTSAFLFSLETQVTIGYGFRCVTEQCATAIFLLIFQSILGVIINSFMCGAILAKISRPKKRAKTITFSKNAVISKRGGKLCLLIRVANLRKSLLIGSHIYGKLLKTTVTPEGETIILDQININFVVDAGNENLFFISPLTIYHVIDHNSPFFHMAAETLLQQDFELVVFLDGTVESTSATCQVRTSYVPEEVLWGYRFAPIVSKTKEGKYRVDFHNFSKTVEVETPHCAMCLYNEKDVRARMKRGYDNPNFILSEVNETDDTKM
Chain of hROMK (hKir1.1) (P48048 whole entry): as the sequence (P48048 whole entry, species assumed) above

| IC50 (hROMK (hKir1.1)) | IC50 (Kir1.1 (ROMK1)) | SMILES |
| --- | --- | --- |
| 310 nM | 20 nM | CO[C@@H](CN1CCC2(CC1)CCN(C1=CC(=O)OC1)C2=O)c1ccc2c(c1C)COC2=O [Example 51, 8-[(2R)-2-methoxy-2-(4-methyl-1-oxo-1,3-dihydro-2-benzofuran-5-yl)ethyl]-2-(5-oxo-2,5-dihydrofuran-3-yl)-2,8-diazaspiro[4.5]decan-1-one] |
| 40 nM | 50 nM | COC1CN(C[C@H](O)c2ccc3c(c2C)COC3=O)CCC12CCN(C1=C(C)C(=O)OC1)C2=O (stereo partly shown) [Example 83] |
